Laboratory results taken from patent US11358973B2, “Di(hetero)aryl macrocyclic compound for inhibiting protein kinase activity” (Shenzhen TargetRx, Inc., priority 2018, dated 2022).
Like-named read-outs stand apart in the source and are kept apart here.

Tests used:
[1] = Pharmacokinetic experiment in rats; assay type: in vivo, Sprague-Dawley rats; design: Cl_pred (L/kg): unit not given here; conditions: rat; for AUC(0-inf): read-out: AUCINF_pred; for MRT inf: read-out: MRTINF_pred
Description: 6 male Sprague-Dawley rats (7-8 weeks old, and weighing approximately 210 g) were divided into 2 groups with 3 rats in each group. The rats were intravenously or orally administered a single dose of compounds (3 mg/kg intravenously, 10 mg/kg orally) to compare pharmacokinetic differences.
The rats were feeded on standard food and water. Fasting was started 16 hours before the test. The drug was dissolved in PEG400 and dimethyl sulfoxide. The blood samples were collected from eyelids at the time points of 0.083 hour, 0.25 hour, 0.5 hour, 1 hour, 2 hours, 4 hours, 6 hours, 8 hours, 12 hours, and 24 hours after administration.
Rats were briefly anesthetized after inhalation of diethyl ether and 300 μL of blood sample was collected from the eyelids into test tubes. There was 30 μL of 1% heparin salt solution in the test tube. Tubes were dried at 60° C. overnight before use. After the blood sample was collected at the last time point, the rats were sacrificed after ether anesthesia.
Immediately after the collection of the blood sample, the test tube was gently inverted at least 5 times to ensure sufficient mixing and then placed on ice. The blood sample was centrifuged at 5000 rpm at 4° C. for 5 minutes to separate the plasma from the red blood cells. 100 μL of plasma was aspirated into a clean plastic centrifuge tube with a pipette, marking with the name of the compound and time point. Plasma was stored at −80° C. prior to analysis. The concentration of the compound of the present disclosure in plasma was determined by LC-MS/MS. The pharmacokinetic parameters were calculated based on the blood concentration of the drug for each animal at different time points.

KM12 cell line = experiment: KM12 cell proliferation analysis (CellTiter-Glo); assay type: cell-based; conditions: Homo sapiens, 72 h
Description: The CGT method was used to detect the in vitro anti-proliferative activity of the compounds of the present disclosure on tumor cells cultured in vitro. The KM12 cell line was maintained in RPMI-1640 medium containing 10% fetal bovine serum and antibiotics, the cells in the logarithmic growth phase were harvested and planted in a 96-well plate. The plate was incubated in an incubator at 37° C., containing 5% carbon dioxide gas overnight. After the test compounds were dissolved in DMSO, a 3-fold concentration gradient dilution with 9 compound concentrations was made. Pre-prepared compounds of different concentrations were transferred to the cell plate in triplicate for each concentration, and continue culturing for 72 h. The final concentration of DMSO in the system was 0.1%, and the initial concentration of the test compound was 300 nM.
CellTiter-Glo reagent was added to the cell plate, and incubated at room temperature for 30 minutes to stabilize the optical signal. Detection was carried out by PerkinElmer Envision microplate reader for determining the inhibitory activity of the compound of the present disclosure at various concentrations on cell proliferation. The inhibitory activity of compounds at different concentrations on cell proliferation was fitted according to Graphpad 5.0 software, and IC50 values were calculated.

TRKB kinase = TRKB kinase (Homo sapiens, UniProt Q16620); experiment: Biochemical kinase analysis (HTRF), TRKB; conditions: 23° C., read-out: Kinase IC50 (nM) TRK B
Description: (§1) Inhibition of TRKA, TRKB, TRKC kinases can be measured by HTRF ([…]) method. The reaction was performed in a 384-well plate at 23° C. with a volume of 20 μL. TRKA TRKB or TRKC kinase were mixed with pre-formulated and diluted compounds of different concentrations for ten minutes in duplicate for each concentration, wherein 11 concentrations made with a 3-fold gradient dilution from the starting concentration of 300 nM were made and the final concentration of DMSO was 2%. The corresponding substrate and ATP were added thereto, and reacted at room temperature for 20 minutes (both a negative and a positive control were set: negative control is blank control, positive control is Entrectinib). After the reaction, detection reagent was added thereto (reagent in HTRF Kinase TK kit), and after incubation at room temperature for 30 minutes, detection was carried out by PerkinElmer Envision microplate reader for determining enzyme activity in the presence of the compounds of the present disclosure at various concentrations, and the inhibitory activity of different concentrations of compounds against enzyme activity was calculated. After that, in accordance with four-factors function and Graphpad 5.0 software, inhibitory activity on enzyme activity under different concentrations of compounds was fitted and IC50 values were calculated.

TRKA kinase = TRKA kinase (Homo sapiens, UniProt P04629); experiment: Biochemical kinase analysis (HTRF), TRKA; conditions: 23° C., read-out: Kinase IC50 (nM) TRK A
Description: as §1

TRKC kinase = TRKC kinase (Homo sapiens, UniProt Q16288); experiment: Biochemical kinase analysis (HTRF), TRKC; conditions: 23° C., read-out: Kinase IC50 (nM) TRK C
Description: as §1

[2] = male, Sprague-Dawley, plasma, IV 3 mg/kg
[3] = male, Sprague-Dawley, plasma, PO 10 mg/kg

TRKA kinase, sequence (P04629 33-796): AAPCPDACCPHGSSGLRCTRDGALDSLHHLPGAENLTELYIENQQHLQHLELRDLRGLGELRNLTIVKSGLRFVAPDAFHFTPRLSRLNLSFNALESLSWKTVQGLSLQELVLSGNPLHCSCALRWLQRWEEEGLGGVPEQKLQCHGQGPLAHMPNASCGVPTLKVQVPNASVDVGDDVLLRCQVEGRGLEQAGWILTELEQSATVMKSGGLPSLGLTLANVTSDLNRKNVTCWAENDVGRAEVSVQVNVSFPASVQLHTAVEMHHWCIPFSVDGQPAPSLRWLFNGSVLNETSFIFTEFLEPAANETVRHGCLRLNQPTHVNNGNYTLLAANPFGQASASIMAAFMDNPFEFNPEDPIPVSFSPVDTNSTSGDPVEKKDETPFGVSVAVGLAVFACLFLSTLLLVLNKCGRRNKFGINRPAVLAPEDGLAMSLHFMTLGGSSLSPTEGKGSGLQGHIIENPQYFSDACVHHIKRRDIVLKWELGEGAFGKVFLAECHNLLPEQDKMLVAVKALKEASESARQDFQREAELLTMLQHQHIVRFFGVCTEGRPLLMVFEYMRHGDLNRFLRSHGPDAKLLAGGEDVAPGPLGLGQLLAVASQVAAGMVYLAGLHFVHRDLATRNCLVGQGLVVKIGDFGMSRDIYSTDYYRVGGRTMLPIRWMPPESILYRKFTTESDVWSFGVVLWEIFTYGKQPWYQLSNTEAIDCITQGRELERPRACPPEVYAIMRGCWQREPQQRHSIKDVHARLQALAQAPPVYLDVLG
TRKB kinase, sequence (Q16620 32-822): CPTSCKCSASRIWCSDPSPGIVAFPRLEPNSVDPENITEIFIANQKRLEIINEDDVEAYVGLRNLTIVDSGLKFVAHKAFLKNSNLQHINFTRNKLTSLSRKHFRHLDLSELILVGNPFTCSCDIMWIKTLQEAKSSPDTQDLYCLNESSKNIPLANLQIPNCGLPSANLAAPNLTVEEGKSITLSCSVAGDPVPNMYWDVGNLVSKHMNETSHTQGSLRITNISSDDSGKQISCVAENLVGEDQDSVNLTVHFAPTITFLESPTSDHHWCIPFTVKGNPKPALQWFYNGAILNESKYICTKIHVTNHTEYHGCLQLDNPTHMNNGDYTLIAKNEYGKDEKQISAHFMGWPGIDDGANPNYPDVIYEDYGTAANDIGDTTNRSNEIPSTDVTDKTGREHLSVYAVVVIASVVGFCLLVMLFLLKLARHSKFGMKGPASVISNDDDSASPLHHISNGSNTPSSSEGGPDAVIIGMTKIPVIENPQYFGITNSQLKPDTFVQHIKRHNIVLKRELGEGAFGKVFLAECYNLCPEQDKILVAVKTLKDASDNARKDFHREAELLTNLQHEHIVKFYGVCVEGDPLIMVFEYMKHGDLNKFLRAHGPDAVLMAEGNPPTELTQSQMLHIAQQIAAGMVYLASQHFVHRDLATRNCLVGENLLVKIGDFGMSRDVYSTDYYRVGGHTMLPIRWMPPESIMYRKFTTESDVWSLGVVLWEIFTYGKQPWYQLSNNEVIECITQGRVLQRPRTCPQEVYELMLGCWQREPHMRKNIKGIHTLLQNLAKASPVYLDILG
TRKC kinase, sequence (Q16288 32-839): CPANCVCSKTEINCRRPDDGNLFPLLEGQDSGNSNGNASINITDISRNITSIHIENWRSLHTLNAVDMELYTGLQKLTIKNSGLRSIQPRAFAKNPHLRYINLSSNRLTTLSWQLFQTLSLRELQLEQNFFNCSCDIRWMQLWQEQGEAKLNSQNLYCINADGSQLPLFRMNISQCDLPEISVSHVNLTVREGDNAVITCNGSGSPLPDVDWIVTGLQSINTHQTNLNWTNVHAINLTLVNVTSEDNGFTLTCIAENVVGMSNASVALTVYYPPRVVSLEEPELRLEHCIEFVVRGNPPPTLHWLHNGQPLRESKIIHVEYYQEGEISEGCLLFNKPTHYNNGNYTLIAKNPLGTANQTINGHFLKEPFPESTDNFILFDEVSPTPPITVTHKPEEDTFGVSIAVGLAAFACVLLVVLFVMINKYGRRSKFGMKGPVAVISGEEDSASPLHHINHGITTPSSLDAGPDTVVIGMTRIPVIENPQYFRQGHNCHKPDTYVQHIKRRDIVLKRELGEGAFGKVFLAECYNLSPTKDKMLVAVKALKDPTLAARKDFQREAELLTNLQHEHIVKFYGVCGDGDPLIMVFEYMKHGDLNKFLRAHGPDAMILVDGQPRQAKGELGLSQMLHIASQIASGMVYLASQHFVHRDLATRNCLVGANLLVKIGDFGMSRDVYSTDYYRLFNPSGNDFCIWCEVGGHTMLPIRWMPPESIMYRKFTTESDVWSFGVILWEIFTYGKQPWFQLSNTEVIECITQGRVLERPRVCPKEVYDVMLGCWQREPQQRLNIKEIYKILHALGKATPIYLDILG

AUC(0-t) [1, 2]: 6560 ng·h/mL
Cmax [1, 2]: 2100 ng/mL
Tmax [1, 2]: 0.08 h
half-life [1, 2]: 5.59 h
AUC(0-inf) [1, 2]: 6620 ng·h/mL
MRT inf [1, 2]: 3.44 h
AUC(0-t) [1, 3]: 11500 ng·h/mL
Cmax [1, 3]: 994 ng/mL
Tmax [1, 3]: 2.17 h
half-life [1, 3]: 4.84 h
bioavailability ([1]; male, Sprague-Dawley, plasma, PO 10 mg/kg vs IV 3 mg/kg): 52.7%
AUC(0-inf) [1, 3]: 12900 ng·h/mL
MRT inf [1, 3]: 7.37 h
Cl_pred (L/kg) ([1]; IV 3 mg/kg): 0.45
Vz_pred ([1]; IV 3 mg/kg): 2.67 L/kg
Cl_pred (L/kg) ([1]; PO 10 mg/kg): 0.83
Vz_pred ([1]; PO 10 mg/kg): 6.70 L/kg
IC50 (TRKB kinase): 0.1 nM
IC50 (TRKA kinase): 0.19 nM
IC50 (TRKC kinase): 0.06 nM
SMILES: C[C@H]1CC(=O)Nc2cnn3ccc(nc23)N[C@H](C)c2cc(F)ccc2O1 [Compound T-2-A, (7S,13R)-11-fluoro-7,13-dimethyl-6,7,13,14-tetrahydro-1,15-ethenopyrazolo[4,3-f][1,4,8,10]benzoxatriazacyclotiidecin-5(6H)-one]
IC50 (KM12 cell line): 1.6 nM
